Patent US11091478B2 (Fochon Pharmaceuticals, Ltd., priority 2017, dated 2021)

Legend:
[1] = tested on: DOHH2 cells; assay: Cell proliferation assay (MTS), DOHH2 cells, 120 h; type: cell-based; details: Homo sapiens, DOHH-2, 120 h
How it was run: (§1)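 RS4;11 and DOHH2 cells at 5000 cells/well in RPMI-1640 with 10% FBS were treated with compound at 1.5–10000 nM final, nine points, at 37 °C, 5% CO2. Exposure was 72 h for RS4;11 and 120 h for DOHH2. MTS was added for 2 h, absorbance read at 490/650 nm, and IC50 calculated.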

[2] = tested on: RS4;11 cells; assay: Cell proliferation assay (MTS), RS4;11 cells, 72 h; type: cell-based; details: Homo sapiens, RS4-11, 72 h
How it was run: as §1

Compound	IC50 [2]	IC50 [1]
CC1(C)CCC(CN2CCN(c3ccc(C(=O)NS(=O)(=O)c4cc5c(c([N+](=O)[O-])c4)N[C@@H](Cc4ccccc4C#N)CO5)c(Oc4cnc5[nH]ccc5c4)c3)CC2)=C(c2ccc(Cl)cc2)C1 [Example 2-208, (S)-2-((1H-pyrrolo[2,3-b]pyridin-5-yl)oxy)-4-(4-((4′-chloro-5,5-dimethyl-3,4,5,6-tetra-hydro-[1,1′-biphenyl]-2-yl)methyl)piperazin-1-yl)-N-((3-(2-cyanobenzyl)-5-nitro-3,4-dihydro-2H-benzo[b][1,4]oxazin-7-yl)sulfo-nyl)benzamide]	0.017 µM	0.11 µM
CC1(C)CCC(c2ccc(Cl)cc2)=C(CN2CCN(c3ccc(C(=O)NS(=O)(=O)c4cc5c(c([N+](=O)[O-])c4)N[C@H](CN4C[C@@H]6C[C@H]4CO6)CO5)c(Oc4cnc5[nH]ccc5c4)c3)CC2)C1 [Example 2-209, 2-((1H-pyrrolo[2,3-b]pyridin-5-yl)oxy)-N-(((R)-3-(((1S,4S)-2-oxa-5-azabicyclo[2.2.1]heptan-5-yl)methyl)-5-nitro-3,4-dihydro-2H-benzo[b][1,4]oxazin-7-yl)sulfonyl)-4-(4-((4′-chloro-4,4-dimethyl-3,4,5,6-tetrahydro-[1,1′-biphenyl]-2-yl)methyl)piperazin-1-yl) benzamide]	0.001 µM	0.035 µM
C[C@@H]1CN(C[C@@H]2COc3cc(S(=O)(=O)NC(=O)c4ccc(N5CCN(CC6=C(c7ccc(Cl)cc7)CCC(C)(C)C6)CC5)cc4Oc4cnc5[nH]ccc5c4)cc([N+](=O)[O-])c3N2)CCN1C1COC1 [Example 2-210, 2-((1H-pyrrolo[2,3-b]pyridin-5-yl)oxy)-4-(4-((4′-chloro-4,4-dimethyl-3,4,5,6-tetrahydro-[1,1′-biphenyl]-2-yl)methyl)piperazin-1-yl)-N-(((R)-3-(((R)-3-methyl-4-(oxetan-3-yl)piperazin-1-yl)methyl)-5-nitro-3,4-dihydro-2H-benzo[b][1,4]oxazin-7-yl)sulfonyl) benzamide]	0.007 µM	0.035 µM
CC1(C)CCC(c2ccc(Cl)cc2)=C(CN2CCN(c3ccc(C(=O)NS(=O)(=O)c4cc5c(c([N+](=O)[O-])c4)N[C@@H](Cc4ccccn4)CO5)c(Oc4cnc5[nH]ccc5c4)c3)CC2)C1 [Example 2-211, (S)-2-((1H-pyrrolo[2,3-b]pyridin-5-yl)oxy)-4-(4-((4′-chloro-4,4-dimethyl-3,4,5,6-tetra-hydro-[1,1′-biphenyl]-2-yl)methyl)piperazin-1-yl)-N-((5-nitro-3-(pyridin-2-ylmethyl)-3,4-dihydro-2H-benzo[b][1,4]oxazin-7-yl)sulfonyl)benzamide]	0.035 µM	0.092 µM
CC1(C)CCC(CN2CCN(c3ccc(C(=O)NS(=O)(=O)c4cc5c(c([N+](=O)[O-])c4)N[C@H](CC4CCNCC4)CO5)c(Oc4cnc5[nH]ccc5c4)c3)CC2)=C(c2ccc(Cl)cc2)C1 [Example 2-214, (R)-2-((1H-pyrrolo[2,3-b]pyridin-5-yl)oxy)-4-(4-((4′-chloro-5,5-dimethyl-3,4,5,6-tetra-hydro-[1,1′-biphenyl]-2-yl)methyl)piperazin-1-yl)-N-((5-nitro-3-(piperidin-4-ylmethyl)-3,4-dihydro-2H-benzo[b][1,4]oxazin-7-yl)sulfonyl)benzamide]	0.016 µM	0.465 µM
CC1(C)CCC(CN2CCN(c3ccc(C(=O)NS(=O)(=O)c4cc5c(c([N+](=O)[O-])c4)N[C@@H](CC4CCC(C)(O)CC4)CO5)c(Oc4cnc5[nH]ccc5c4)c3)CC2)=C(c2ccc(Cl)cc2)C1 (stereo partly drawn) [Example 2-216, (S)-2-((1H-pyrrolo[2,3-b]pyridin-5-yl)oxy)-4-(4-((4′-chloro-5,5-dimethyl-3,4,5,6-tetra-hydro-[1,1′-biphenyl]-2-yl)methyl)piperazin-1-yl)-N-((3-((4-hydroxy-4-methylcyclohex-yl)methyl)-5-nitro-3,4-dihydro-2H-benzo [b][1,4]oxazin-7-yl)sulfonyl)benzamide]	0.013 µM	0.268 µM

Second part, led by results:

IC50 [2]	Compound	IC50 [1]
0.008 µM	CC1(C)CCC(c2ccc(Cl)cc2)=C(CN2CCN(c3ccc(C(=O)NS(=O)(=O)c4cc5c(c([N+](=O)[O-])c4)N[C@@H](C4CCOCC4)CO5)c(Oc4cnc5[nH]ccc5c4)c3)CC2)C1 [Example 2-212, (S)-2-((1H-pyrrolo[2,3-b]pyridin-5-yl)oxy)-4-(4-((4′-chloro-4,4-dimethyl-3,4,5,6-tetra-hydro-[1,1′-biphenyl]-2-yl)methyl)piperazin-1-yl)-N-((5-nitro-3-(tetrahydro-2H-pyran-4-yl)-3,4-dihydro-2H-benzo[b][1,4]oxazin-7-yl)sulfonyl)benzamide]	0.027 µM
0.008 µM	CC1(C)CCC(c2ccc(Cl)cc2)=C(CN2CCN(c3ccc(C(=O)NS(=O)(=O)c4cc5c(c([N+](=O)[O-])c4)N[C@H](C4CCOCC4)CO5)c(Oc4cnc5[nH]ccc5c4)c3)CC2)C1 [Example 2-213, (R)-2-((1H-pyrrolo[2,3-b]pyridin-5-yl)oxy)-4-(4-((4′-chloro-4,4-dimethyl-3,4,5,6-tetra-hydro-[1,1′-biphenyl]-2-yl)methyl)piperazin-1-yl)-N-((5-nitro-3-(tetrahydro-2H-pyran-4-yl)-3,4-dihydro-2H-benzo[b][1,4]oxazin-7-yl)sulfonyl)benzamide]	0.041 µM
0.003 µM	CC1(C)CCC(CN2CCN(c3ccc(C(=O)NS(=O)(=O)c4cc5c(c([N+](=O)[O-])c4)N[C@@H](C4CCC(C)(O)CC4)CO5)c(Oc4cnc5[nH]ccc5c4)c3)CC2)=C(c2ccc(Cl)cc2)C1 (stereo partly drawn) [Example 2-215, (S)-2-((1H-pyrrolo[2,3-b]pyridin-5-yl)oxy)-4-(4-((4′-chloro-5,5-dimethyl-3,4,5,6-tetra-hydro-[1,1′-biphenyl]-2-yl)methyl)piperazin-1-yl)-N-((3-(4-hydroxy-4-methylcyclohex-yl)-5-nitro-3,4-dihydro-2H-benzo[b][1,4]oxazin-7-yl)sulfonyl)benzamide]	0.065 µM
0.008 µM	CC1(C)CCC(CN2CCN(c3ccc(C(=O)NS(=O)(=O)c4cc5c(c([N+](=O)[O-])c4)N[C@@H](CO)CO5)c(Oc4cnc5[nH]ccc5c4)c3)CC2)=C(c2ccc(Cl)cc2)C1 [Example 2-220, (S)-2-((1H-pyrrolo[2,3-b]pyridin-5-yl)oxy)-4-(4-((4′-chloro-5,5-dimethyl-3,4,5,6-tetra-hydro-[1,1′-biphenyl]-2-yl)methyl)piperazin-1-yl)-N-((3-(hydroxymethyl)-5-nitro-3,4-dihydro-2H-benzo[b][1,4]oxazin-7-yl)sulfonyl)benzamide]	0.036 µM
0.03 µM	CC1(C)CCC(CN2CCN(c3ccc(C(=O)NS(=O)(=O)c4cc5c(c([N+](=O)[O-])c4)N[C@@H](CC4CCNCC4)CO5)c(Oc4cnc5[nH]ccc5c4)c3)CC2)=C(c2ccc(Cl)cc2)C1 [Example 2-221, (S)-2-((1H-pyrrolo[2,3-b]pyridin-5-yl)oxy)-4-(4-((4′-chloro-5,5-dimethyl-3,4,5,6-tetra-hydro-[1,1′-biphenyl]-2-yl)methyl)piperazin-1-yl)-N-((5-nitro-3-(piperidin-4-ylmethyl)-3,4-dihydro-2H-benzo[b][1,4]oxazin-7-yl)sulfonyl)benzamide]	0.474 µM
0.025 µM	CC1(C)CCC(CN2CCN(c3ccc(C(=O)NS(=O)(=O)c4cc5c(c([N+](=O)[O-])c4)N[C@H](C4CCN(C(=O)OC(C)(C)C)CC4)CO5)c(Oc4cnc5[nH]ccc5c4)c3)CC2)=C(c2ccc(Cl)cc2)C1 [Example 2-222, tert-btuyl (R)-4-(7-(N-(2-((1H-pyrrolo[2,3-b]pyridin-5-yl)oxy)-4-(4-((4′-chloro-5,5-dimethyl-3,4,5,6-tetrahydro-[1,1′-biphenyl]-2-yl)methyl)piperazin-1-yl)benzoyl)sulfamoyl)-5-nitro-3,4-dihydro-2H-benzo[b][1,4]oxazin-3-yl) piperidine-1-carboxylate]	0.003 µM
0.001 µM	COC(=O)N1CCC([C@@H]2COc3cc(S(=O)(=O)NC(=O)c4ccc(N5CCN(CC6=C(c7ccc(Cl)cc7)CC(C)(C)CC6)CC5)cc4Oc4cnc5[nH]ccc5c4)cc([N+](=O)[O-])c3N2)CC1 [Example 2-223, methyl (R)-4-(7-(N-(2-((1H-pyrrolo[2,3-b]pyridin-5-yl)oxy)-4-(4-((4′-chloro-5,5-dimethyl-3,4,5,6-tetrahydro-[1,1′-biphenyl]-2-yl)methyl)piperazin-1-yl)benzoyl)sulfamoyl)-5-nitro-3,4-dihydro-2H-benzo[b][1,4]oxazin-3-yl) piperidine-1-carboxylate]	0.011 µM
0.004 µM	CC(=O)N1CCC([C@@H]2COc3cc(S(=O)(=O)NC(=O)c4ccc(N5CCN(CC6=C(c7ccc(Cl)cc7)CC(C)(C)CC6)CC5)cc4Oc4cnc5[nH]ccc5c4)cc([N+](=O)[O-])c3N2)CC1 [Example 2-224, (R)-2-((1H-pyrrolo[2,3-b]pyridin-5-yl)oxy)-N-((3-(1-acetylpiperidin-4-yl)-5-nitro-3,4-dihydro-2H-benzo[b][1,4]oxazin-7-yl)sulfo-nyl)-4-(4-((4′-chloro-5,5-dimethyl-3,4,5,6-tetrahydro-[1,1′-biphenyl]-2-yl)methyl)piper-azin-1-yl)benzamide]	0.003 µM
0.002 µM	CC1(C)CCC(CN2CCN(c3ccc(C(=O)NS(=O)(=O)c4cc5c(c([N+](=O)[O-])c4)N[C@H](C4CCN(S(C)(=O)=O)CC4)CO5)c(Oc4cnc5[nH]ccc5c4)c3)CC2)=C(c2ccc(Cl)cc2)C1 [Example 2-225, (R)-2-((1H-pyrrolo[2,3-b]pyridin-5-yl)oxy)-4-(4-((4′-chloro-5,5-dimethyl-3,4,5,6-tetra-hydro-[1,1′-biphenyl]-2-yl)methyl)piperazin-1-yl)-N-((3-(1-(methylsulfonyl)piperidin-4-yl)-5-nitro-3,4-dihydro-2H-benzo[b][1,4]oxazin-7-yl)sulfonyl)benzamide]	0.015 µM
